# Source: patent publication US20150105252A1, “SUBSTITUTED PYRAZOLES AS HERBICIDES” (E I DU PONT DE NEMOURS AND COMPANY, priority 2013, published 2015)
# Tests used:
# chickweed [1] = assay: Test D preemergence; type: in vivo, Stellaria media; settings: Preemergence, scale 0 to 100
# Outline: (§1)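 Seeds are planted in silt loam and treated preemergence, while parallel plantings in a peat moss/vermiculite medium with starter nutrients receive postemergence sprays at the 1- to 4-leaf stage. All formulations use a non-phytotoxic solvent mixture with surfactant. Plants are kept in a controlled growth environment and rated visually after 14–21 days.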
# bromegrass, downy = assay: Test D postemergence; type: in vivo, Bromus tectorum; settings: scale 0 to 100
# Outline: as §1
# blackgrass [2] = assay: Test D postemergence; type: in vivo, Alopecurus myosuroides; settings: scale 0 to 100
# Outline: as §1
# bluegrass [3] = assay: Test D postemergence; type: in vivo, Poa annua; settings: scale 0 to 100
# Outline: as §1
# galium [4] = assay: Test D postemergence; type: in vivo, Galium aparine; settings: scale 0 to 100
# Outline: as §1
# oilseed rape [5] = assay: Test D preemergence; type: in vivo, Brassica napus; settings: Preemergence, scale 0 to 100
# Outline: as §1
# oilseed rape [6] = assay: Test D postemergence; type: in vivo, Brassica napus; settings: scale 0 to 100
# Outline: as §1
# field poppy [7] = assay: Test D postemergence; type: in vivo, Papaver rhoeas; settings: scale 0 to 100
# Outline: as §1
# mustard, wild = assay: Test D preemergence; type: in vivo, Sinapis arvensis; settings: Preemergence, scale 0 to 100
# Outline: as §1
# oat, wild = assay: Test D preemergence; type: in vivo, Avena fatua; settings: Preemergence, scale 0 to 100
# Outline: as §1
# blackgrass [8] = assay: Test D preemergence; type: in vivo, Alopecurus myosuroides; settings: Preemergence, scale 0 to 100
# Outline: as §1
# field poppy [9] = assay: Test D preemergence; type: in vivo, Papaver rhoeas; settings: Preemergence, scale 0 to 100
# Outline: as §1
# ryegrass, Italian = assay: Test D preemergence; type: in vivo, Lolium multiflorum; settings: Preemergence, scale 0 to 100
# Outline: as §1
# galium [10] = assay: Test D preemergence; type: in vivo, Galium aparine; settings: Preemergence, scale 0 to 100
# Outline: as §1
# bluegrass [11] = assay: Test D preemergence; type: in vivo, Poa annua; settings: Preemergence, scale 0 to 100
# Outline: as §1
# foxtail, green = assay: Test D postemergence; type: in vivo, Setaria viridis; settings: scale 0 to 100
# Outline: as §1
# chickweed [12] = assay: Test D postemergence; type: in vivo, Stellaria media; settings: scale 0 to 100
# Outline: as §1
# windgrass = assay: Test D postemergence; type: in vivo, Apera spica-venti; settings: scale 0 to 100
# Outline: as §1
# wheat, spring = assay: Test D postemergence; type: in vivo, Triticum aestivum; settings: scale 0 to 100
# Outline: as §1
# wheat, winter = assay: Test D postemergence; type: in vivo, Triticum aestivum; settings: scale 0 to 100
# Outline: as §1
compound,measurement,setting,value
CCCc1cc(C(=O)NC(C)C)nn1Cc1cc(C(F)(F)F)nn1C [Compound 201],"Plant response rating, Chickweed",chickweed [1]; 31 g ai/ha,80
same,"Plant response rating, Chickweed",chickweed [1]; 62 g ai/ha,100
same,"Plant response rating, Chickweed",chickweed [1]; 125 g ai/ha,100
same,"Plant response rating, Chickweed",chickweed [1]; 250 g ai/ha,100
same,"Bromegrass, Downy plant response rating","bromegrass, downy; Postemergence, 31 g ai/ha",30
same,"Bromegrass, Downy plant response rating","bromegrass, downy; Postemergence, 125 g ai/ha",35
same,"Bromegrass, Downy plant response rating","bromegrass, downy; Postemergence, 250 g ai/ha",50
same,"Bromegrass, Downy plant response rating","bromegrass, downy; postemergence, 62 g ai/ha",30
same,Blackgrass plant response rating,"blackgrass [2]; Postemergence, 31 g ai/ha",25
same,Blackgrass plant response rating,"blackgrass [2]; Postemergence, 125 g ai/ha",50
same,Blackgrass plant response rating,"blackgrass [2]; Postemergence, 250 g ai/ha",65
same,Blackgrass plant response rating,"blackgrass [2]; postemergence, 62 g ai/ha",25
same,Bluegrass plant response rating,"bluegrass [3]; Postemergence, 31 g ai/ha",20
same,Bluegrass plant response rating,"bluegrass [3]; Postemergence, 125 g ai/ha",35
same,Bluegrass plant response rating,"bluegrass [3]; Postemergence, 250 g ai/ha",40
same,Bluegrass plant response rating,"bluegrass [3]; postemergence, 62 g ai/ha",20
same,Galium plant response rating,"galium [4]; Postemergence, 31 g ai/ha",70
same,Galium plant response rating,"galium [4]; Postemergence, 125 g ai/ha",70
same,Galium plant response rating,"galium [4]; Postemergence, 250 g ai/ha",85
same,Galium plant response rating,"galium [4]; postemergence, 62 g ai/ha",70
same,"Plant response rating, Oilseed Rape",oilseed rape [5]; 62 g ai/ha,100
same,"Plant response rating, Oilseed Rape",oilseed rape [5]; 125 g ai/ha,100
same,"Plant response rating, Oilseed Rape",oilseed rape [5]; 250 g ai/ha,100
same,Oilseed Rape plant response rating,"oilseed rape [6]; Postemergence, 31 g ai/ha",40
same,Oilseed Rape plant response rating,"oilseed rape [6]; Postemergence, 125 g ai/ha",50
same,Oilseed Rape plant response rating,"oilseed rape [6]; Postemergence, 250 g ai/ha",70
same,Oilseed Rape plant response rating,"oilseed rape [6]; postemergence, 62 g ai/ha",40
same,Field Poppy plant response rating,"field poppy [7]; Postemergence, 31 g ai/ha",55
same,Field Poppy plant response rating,"field poppy [7]; Postemergence, 125 g ai/ha",60
same,Field Poppy plant response rating,"field poppy [7]; Postemergence, 250 g ai/ha",65
same,Field Poppy plant response rating,"field poppy [7]; postemergence, 62 g ai/ha",55
same,"Plant response rating, Mustard, Wild","mustard, wild; 62 g ai/ha",100
same,"Plant response rating, Mustard, Wild","mustard, wild; 125 g ai/ha",100
same,"Plant response rating, Mustard, Wild","mustard, wild; 250 g ai/ha",100
same,"Plant response rating, Oat, Wild","oat, wild; 62 g ai/ha",60
same,"Plant response rating, Oat, Wild","oat, wild; 125 g ai/ha",100
same,"Plant response rating, Oat, Wild","oat, wild; 250 g ai/ha",100
same,"Plant response rating, Blackgrass",blackgrass [8]; 31 g ai/ha,35
same,"Plant response rating, Blackgrass",blackgrass [8]; 62 g ai/ha,90
same,"Plant response rating, Blackgrass",blackgrass [8]; 125 g ai/ha,100
same,"Plant response rating, Blackgrass",blackgrass [8]; 250 g ai/ha,100
same,"Plant response rating, Field Poppy",field poppy [9]; 62 g ai/ha,100
same,"Plant response rating, Field Poppy",field poppy [9]; 125 g ai/ha,100
same,"Plant response rating, Field Poppy",field poppy [9]; 250 g ai/ha,100
same,"Plant response rating, Ryegrass, Italian","ryegrass, Italian; 62 g ai/ha",65
same,"Plant response rating, Ryegrass, Italian","ryegrass, Italian; 125 g ai/ha",85
same,"Plant response rating, Ryegrass, Italian","ryegrass, Italian; 250 g ai/ha",100
same,"Plant response rating, Galium",galium [10]; 62 g ai/ha,50
same,"Plant response rating, Galium",galium [10]; 125 g ai/ha,100
same,"Plant response rating, Galium",galium [10]; 250 g ai/ha,100
same,"Plant response rating, Bluegrass",bluegrass [11]; 31 g ai/ha,20
same,"Plant response rating, Bluegrass",bluegrass [11]; 62 g ai/ha,50
same,"Plant response rating, Bluegrass",bluegrass [11]; 125 g ai/ha,80
same,"Plant response rating, Bluegrass",bluegrass [11]; 250 g ai/ha,95
same,"Foxtail, Green plant response rating","foxtail, green; Postemergence, 31 g ai/ha",30
same,"Foxtail, Green plant response rating","foxtail, green; Postemergence, 125 g ai/ha",40
same,"Foxtail, Green plant response rating","foxtail, green; Postemergence, 250 g ai/ha",55
same,"Foxtail, Green plant response rating","foxtail, green; postemergence, 62 g ai/ha",30
same,Chickweed plant response rating,"chickweed [12]; Postemergence, 31 g ai/ha",55
same,Chickweed plant response rating,"chickweed [12]; Postemergence, 125 g ai/ha",70
same,Chickweed plant response rating,"chickweed [12]; Postemergence, 250 g ai/ha",75
same,Chickweed plant response rating,"chickweed [12]; postemergence, 62 g ai/ha",55
same,Windgrass plant response rating,"windgrass; Postemergence, 31 g ai/ha",20
same,Windgrass plant response rating,"windgrass; Postemergence, 125 g ai/ha",30
same,Windgrass plant response rating,"windgrass; Postemergence, 250 g ai/ha",45
same,Windgrass plant response rating,"windgrass; postemergence, 62 g ai/ha",20
same,"Wheat, Spring plant response rating","wheat, spring; Postemergence, 31 g ai/ha",15
same,"Wheat, Spring plant response rating","wheat, spring; Postemergence, 125 g ai/ha",15
same,"Wheat, Spring plant response rating","wheat, spring; Postemergence, 250 g ai/ha",30
same,"Wheat, Spring plant response rating","wheat, spring; postemergence, 62 g ai/ha",15
same,"Wheat, Winter plant response rating","wheat, winter; Postemergence, 31 g ai/ha",20
same,"Wheat, Winter plant response rating","wheat, winter; Postemergence, 125 g ai/ha",25
same,"Wheat, Winter plant response rating","wheat, winter; Postemergence, 250 g ai/ha",40
same,"Wheat, Winter plant response rating","wheat, winter; postemergence, 62 g ai/ha",20
